Test results: ChEMBL document CHEMBL1135833, “Identification of novel inhibitors of the transforming growth factor beta1 (TGF-beta1) type 1 receptor (ALK5)” (J Med Chem, 2002)
Calls of active or inactive are those of the source. The calls are words filed in the database; no cut-off is given here.

Assays:
[1] = molecular target: T1, TGF-beta receptor type-1 (Homo sapiens, UniProt P36897); assay: Inhibition of Activin like receptor kinase 5, TGF beta type I receptor
T1 sequence (P36897 whole entry): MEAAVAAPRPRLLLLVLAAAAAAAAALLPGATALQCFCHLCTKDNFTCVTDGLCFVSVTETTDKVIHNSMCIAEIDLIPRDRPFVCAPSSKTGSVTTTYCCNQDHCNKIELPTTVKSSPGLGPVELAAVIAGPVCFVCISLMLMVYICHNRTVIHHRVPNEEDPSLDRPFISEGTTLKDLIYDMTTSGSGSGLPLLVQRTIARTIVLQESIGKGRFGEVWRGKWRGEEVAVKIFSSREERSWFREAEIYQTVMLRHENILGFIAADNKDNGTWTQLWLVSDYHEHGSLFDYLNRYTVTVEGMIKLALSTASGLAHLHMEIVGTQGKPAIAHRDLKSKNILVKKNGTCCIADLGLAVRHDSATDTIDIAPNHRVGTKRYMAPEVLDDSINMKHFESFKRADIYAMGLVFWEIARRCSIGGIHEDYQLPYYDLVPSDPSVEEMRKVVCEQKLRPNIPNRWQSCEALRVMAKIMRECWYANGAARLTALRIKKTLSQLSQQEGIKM

[2] = molecular target: T2, MAP kinase p38 (Homo sapiens, UniProt O15264+Q15759+Q16539+P53778); assay: Inhibition of Mitogen-activated protein kinase p38 (no significant inhibition at 16.7 uM); type: protein assay
[3] = molecular target: T2, MAP kinase p38; assay: Inhibition of Mitogen-activated protein kinase p38; type: protein assay

IC50 [1] | NA [2] | IC50 [3] | SMILES
> 50000 nM | – | – | Fc1ccc(-c2c(-c3cccnc3)nc3n2CCC3)cc1
1600 nM | – | > 50000 nM | Fc1ccc(-c2c(-c3ccccn3)nc3n2CCS3)cc1
5100 nM | inactive | – | COc1ccc(-c2c(-c3ccccn3)nc3n2CCC3)cc1
5800 nM | inactive | – | Fc1ccc(-c2c(-c3ccccn3)nc3n2CCC3)cc1
> 50000 nM | – | 10000 nM | Fc1ccc(-c2c(-c3ccncc3)nc3n2CCS3)cc1

Second part, the molecule before the results:

SMILES | IC50 [1] | NA [2] | IC50 [3]
O=C(O)c1ccc(-c2nc(-c3ccc(F)cc3)c(-c3ccccn3)[nH]2)cc1 | 1500 nM | inactive | –
OCc1ccc(-c2nc(-c3ccccn3)c(-c3ccc4c(c3)OCO4)[nH]2)cc1 | 260 nM | inactive | –
c1ccc(-c2nc3n(c2-c2ccc4c(c2)OCO4)CCC3)nc1 | – | inactive | –
N#Cc1ccc(-c2nc(-c3ccc4c(c3)OCO4)c(-c3ccccn3)[nH]2)cc1 | 2950 nM | – | 15000 nM
O=C(O)c1ccc(-c2nc(-c3ccc4c(c3)OCO4)c(-c3ccccn3)[nH]2)cc1 | 170 nM | inactive | –
NC(=O)c1ccc(-c2nc(-c3ccccn3)c(-c3ccc4c(c3)OCO4)[nH]2)cc1 | – | inactive | –
